Test results taken from US20100160369A1, “S1P1 Agonists and Methods of Making And Using” (EXELIXIS, INC., priority 2008, published 2010).
Where two headings read alike, the source gives them in different places.

Target: S1P1 (Homo sapiens, UniProt P21453)
Assay: CNG cAMP Assay (Assay 1)
Assay type: cell-based
Parameters: host or cells: HEK293 cells expressing the CNG channel
Protocol: Frozen HEK293 cells expressing the CNG channel and S1P1 (BD Biosciences, San Jose, Calif.) were thawed and plated into the wells of a black, clear bottom, 384-well CellBind plate (Corning, Corning, N.Y.) at 14,000 cells per well. HEK293 cells expressing the CNG channel and CB1 (BD Biosciences) were cultured and plated under the same conditions. The cells were incubated for 16 h at 37° C. in complete DMEM medium (Invitrogen Carlsbad, Calif.) containing 10% FBS (HyClone Logan, Utah), 250 μg/mL geneticin (Invitrogen), and 1 μg/mL puromycin (Sigma-Aldrich, St. Louis, Mo.). A membrane potential dye (BD Biosciences) was added and the plates were incubated for 2-2.5 h at room temperature.
Test compounds were tested at maximum concentrations of 10 μM. Compounds were diluted in DMSO (10 concentration points, 3-fold each) and added to the assay plate at final DMSO concentrations of 1.8%. For each compound, there were duplicate assay plates and each assay plate had duplicate wells per concentration point. Test compounds were added to the cells in a DPBS solution containing 25 μM Ro 20-1724 (Sigma-Aldrich), 500 nM of the A2b receptor agonist NECA (Sigma-Aldrich) and 10 nM (EC95) of S1P (Avanti Alabaster, Ala.) and incubated for 90 min. The assay plate was read before compound addition (T0) and after the 90 min incubation (T90) using an EnVision plate reader (PerkinElmer, Waltham, Mass.) at an excitation wavelength of 350 nm and an emission wavelength of 590 nm. The T90/T0 ratio was determined for each concentration of the test compounds. The percent agonist activity was determined as [(test compound−DMSO alone control)/(NECA alone control−DMSO alone control)*100]. The percent activities were plotted against compound concentration to determine EC50 using XLFit (IDBS, Alameda, Calif.). The control used for calculating rEC50 in the S1P1 CNG agonist assay was DMSO.
Assay 1 is the CNG cAMP Assay as described in Biological Example 1. Assay 2a and 2b are the Tango™ β-arrestin Recruitment Assay in HEK293 and U2OS cells, respectively, as described in Biological Example 2. Assay 3a is the hS1P1R GTPγS Binding Assay as described in Biological Example 3. Assay 3b is the GTP-Eu Binding Assay as described in Biological Example 3. EC50's were measured unless otherwise noted. […] In the table, “nt” means the Compound was not tested and “no” means the compound was tested but had no measurable activity under the assay conditions employed.

[1] = footnote 1: Relative EC50 was measured, read-out: Assay 1 Relative EC50
[2] = relative EC50 was measured (footnote 1), read-out: Assay 1 Relative EC50

Chain of S1P1 (P21453 whole entry): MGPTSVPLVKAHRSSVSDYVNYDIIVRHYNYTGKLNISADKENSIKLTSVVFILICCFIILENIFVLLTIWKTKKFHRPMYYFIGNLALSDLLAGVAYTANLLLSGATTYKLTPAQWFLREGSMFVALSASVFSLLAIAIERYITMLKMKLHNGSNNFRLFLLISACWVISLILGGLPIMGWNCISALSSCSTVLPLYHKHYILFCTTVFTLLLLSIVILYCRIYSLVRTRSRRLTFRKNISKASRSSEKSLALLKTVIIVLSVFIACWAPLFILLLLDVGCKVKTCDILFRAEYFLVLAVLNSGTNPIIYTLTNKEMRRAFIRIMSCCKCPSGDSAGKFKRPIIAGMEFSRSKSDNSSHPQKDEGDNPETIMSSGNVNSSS

Compound `OCCN1CCC(Oc2cc(Cl)c(-c3noc(-c4cn5cc(C(F)(F)F)cc(Cl)c5n4)n3)cc2F)C1` (stereo not shown) [Example 144, 2-{3-[(5-chloro-4-{5-[8-chloro-6-(trifluoromethyl)imidazo[1,2-a]pyridin-2-yl]-1,2,4-oxadiazol-3-yl}-2-fluorophenyl)oxy]pyrrolidin-1-yl}ethanol] has an EC50 (read-out: Assay 1 EC50) of 100 to 500 nM.
`Fc1cc(-c2noc(-c3cn4cc(C(F)(F)F)cc(Cl)c4n3)n2)c(Cl)cc1OC1CCNC1` (stereo not shown) [Example 264, 8-chloro-2-{3-[2-chloro-5-fluoro-4-(pyrrolidin-3-yloxy)phenyl]-1,2,4-oxadiazol-5-yl}-6-(trifluoromethyl)imidazo[1,2-a]pyridine] was tested, and the EC50 (read-out: Assay 1 EC50) was ≤ 100 nM.
In the case of `OCCN1CCC(Oc2ccc(-c3noc(-c4cn5cc(C(F)(F)F)cc(Cl)c5n4)n3)c(Cl)c2)C1` (stereo not shown) [Example 210, 2-{3-[(3-chloro-4-{5-[8-chloro-6-(trifluoromethyl)imidazo[1,2-a]pyridin-2-yl]-1,2,4-oxadiazol-3-yl}phenyl)oxy]pyrrolidin-1-yl}ethanol], the EC50 [1] is reported as 1000 to 5000 nM.
Compound `O=C(O)Cn1ccc2c(-c3noc(-c4cn5cc(C(F)(F)F)cc(Cl)c5n4)n3)cccc21` [Example 293, (4-{5-[8-chloro-6-(trifluoromethyl)imidazo[1,2-a]pyridin-2-yl]-1,2,4-oxadiazol-3-yl}-1H-indol-1-yl)acetic acid] has an EC50 (read-out: Assay 1 EC50) of 500 to 1000 nM.
With `N#Cc1cc(C(F)(F)F)cn2cc(-c3nc(-c4ccc(F)cc4Cl)no3)nc12` [Example 291, 2-[3-(2-chloro-4-fluorophenyl)-1,2,4-oxadiazol-5-yl]-6-(trifluoromethyl)imidazo[1,2-a]pyridine-8-carbonitrile] the EC50 (read-out: Assay 1 EC50) was 100 to 500 nM.
In the case of `CC(CC(N)=O)c1ccc(-c2noc(-c3cn4cc(C(F)(F)F)cc(Cl)c4n3)n2)c(Cl)c1` (stereo not shown) [Example 170, 3-(3-chloro-4-{5-[8-chloro-6-(trifluoromethyl)imidazo[1,2-a]pyridin-2-yl]-1,2,4-oxadiazol-3-yl}phenyl)butanamide], the EC50 (read-out: Assay 1 EC50) is reported as ≤ 100 nM.
Work on `O=C(O)C1CC1c1ccc(-c2noc(-c3cn4cc(C(F)(F)F)cc(Cl)c4n3)n2)c(F)c1` (stereo not shown) [Entry 41] yielded an EC50 (read-out: Assay 1 EC50) of 100 to 500 nM.
`FC(F)(F)c1cc(Cl)c2nc(-c3nc(-c4ccc5[nH]ccc5c4)no3)cn2c1` [Example 151, 8-chloro-2-[3-(1H-indol-5-yl)-1,2,4-oxadiazol-5-yl]-6-(trifluoromethyl)imidazo[1,2-a]pyridine] was tested, and the EC50 (read-out: Assay 1 EC50) was 100 to 500 nM.
In the case of `FC(F)(F)c1cc(Cl)c2nc(-c3nc(-c4cnccc4C(F)(F)F)no3)cn2c1` [Example 290, 8-chloro-6-(trifluoromethyl)-2-{3-[4-(trifluoromethyl)pyridin-3-yl]-1,2,4-oxadiazol-5-yl}imidazo[1,2-a]pyridine], the EC50 (read-out: Assay 1 EC50) is reported as 1000 to 5000 nM.
`C=CCOc1c(C)cc(-c2noc(-c3cn4cc(C(F)(F)F)cc(Cl)c4n3)n2)cc1C` [Entry 37] was tested, and the EC50 [2] was 5000 to 10000 nM.
`O=C(O)CN1CCC(Oc2ccc(-c3noc(-c4cn5cc(C(F)(F)F)cc(Cl)c5n4)n3)c(Cl)c2)C1` (stereo not shown) [Example 112] was tested, and the EC50 (read-out: Assay 1 EC50) was ≤ 100 nM.
Compound `CS(=O)(=O)Nc1ccc(-c2noc(-c3cn4cc(C#N)cc(Br)c4n3)n2)c(Cl)c1` [Example 114, N-{4-[5-(8-bromo-6-cyanoimidazo[1,2-a]pyridin-2-yl)-1,2,4-oxadiazol-3-yl]-3-chlorophenyl}methanesulfonamide] has an EC50 [2] of 1000 to 5000 nM.
`O=C(O)C1CC1c1ccc(-c2noc(-c3cn4cc(C(F)(F)F)cc(Cl)c4n3)n2)cc1` (stereo not shown) [Entry 75] gave an EC50 [2] of 500 to 1000 nM.
In the case of `FC(F)(F)c1ccc(-c2noc(-c3cn4cc(C(F)(F)F)cc(Cl)c4n3)n2)c(Cl)c1` [Example 183, 8-chloro-2-{3-[2-chloro-4-(trifluoromethyl)phenyl]-1,2,4-oxadiazol-5-yl}-6-(trifluoromethyl)imidazo[1,2-a]pyridine], the EC50 (read-out: Assay 1 EC50) is reported as 500 to 1000 nM.
`CC(CO)Oc1cc(Cl)c(-c2nc(-c3cn4cc(C(F)(F)F)cc(Cl)c4n3)no2)cc1F` (stereo not shown) [Example 217, 2-[(5-chloro-4-{3-[8-chloro-6-(trifluoromethyl)imidazo[1,2-a]pyridin-2-yl]-1,2,4-oxadiazol-5-yl}-2-fluorophenyl)oxy]propan-1-ol] was tested, and the EC50 (read-out: Assay 1 EC50) was ≤ 100 nM.
For `CS(=O)(=O)Nc1c(F)cc(-c2noc(-c3cn4cc(C(F)(F)F)cc(Cl)c4n3)n2)cc1Cl` [Example 268, N-(2-chloro-4-{5-[8-chloro-6-(trifluoromethyl)imidazo[1,2-a]pyridin-2-yl]-1,2,4-oxadiazol-3-yl}-6-fluorophenyl)methane sulfonamide], the EC50 (read-out: Assay 1 EC50) was 500 to 1000 nM.
Compound `C=CS(=O)(=O)Nc1ccc(-c2noc(-c3cn4cc(C(F)(F)F)cc(Cl)c4n3)n2)c(Cl)c1` [Example 128, N-(3-chloro-4-{5-[8-chloro-6-(trifluoromethyl)imidazo[1,2-a]pyridin-2-yl]-1,2,4-oxadiazol-3-yl}phenyl)ethenesulfonamide] has an EC50 (read-out: Assay 1 EC50) of 100 to 500 nM.
Compound `CC(CN)Oc1ccc(-c2noc(-c3cn4cc(C(F)(F)F)cc(Cl)c4n3)n2)c(Cl)c1` (stereo not shown) [Example 258, 2-[(3-chloro-4-{5-[8-chloro-6-(trifluoromethyl)imidazo[1,2-a]pyridin-2-yl]-1,2,4-oxadiazol-3-yl}phenyl)oxy]propan-1-amine] has an EC50 (read-out: Assay 1 EC50) of 100 to 500 nM.
For `Cc1c(Br)cc(Br)c2nc(-c3nc(-c4cc(F)c(CCC(=O)O)cc4Cl)no3)cn12` [Entry 62], the EC50 (read-out: Assay 1 EC50) was ≤ 100 nM.
In the case of `NC(Cc1ccc(-c2noc(-c3cn4cc(C(F)(F)F)cc(Cl)c4n3)n2)c(Cl)c1)C(=O)O` (stereo not shown) [Entry 11], the EC50 (read-out: Assay 1 EC50) is reported as 100 to 500 nM.
For `N#Cc1cc(Cl)c2nc(-c3nc(-c4cc(F)c(CCC(=O)O)cc4Cl)no3)cn2c1` [Entry 48], the EC50 (read-out: Assay 1 EC50) was ≤ 100 nM.
`O=C(O)C1CN(Cc2ccc(-c3nc(-c4cn5cc(C(F)(F)F)cc(Cl)c5n4)no3)cc2)C1` [Example 231, 1-[(4-{3-[8-chloro-6-(trifluoromethyl)imidazo[1,2-a]pyridin-2-yl]-1,2,4-oxadiazol-5-yl}phenyl)methyl]azetidine-3-carboxylic acid] was tested, and the EC50 [1] was 5000 to 10000 nM.
Compound `CS(=O)(=O)Nc1c(F)cc(-c2nc(-c3cn4cc(C(F)(F)F)cc(Cl)c4n3)no2)cc1Cl` [Example 236, N-(2-chloro-4-{3-[8-chloro-6-(trifluoromethyl)imidazo[1,2-a]pyridin-2-yl]-1,2,4-oxadiazol-5-yl}-6-fluorophenyl)methane sulfonamide] has an EC50 [1] of 5000 to 10000 nM.
With `Cc1cc(-c2noc(-c3cn4cc(C(F)(F)F)cc(Cl)c4n3)n2)ccc1CCC(=O)O` [Entry 23] the EC50 (read-out: Assay 1 EC50) was ≤ 100 nM.
With `CCOC(=O)C(C)Oc1cc(Cl)c(-c2noc(-c3cn4cc(C(F)(F)F)cc(Cl)c4n3)n2)cc1F` (stereo not shown) [Example 113, ethyl 2-[(5-chloro-4-{5-[8-chloro-6-(trifluoromethyl)imidazo[1,2-a]pyridin-2-yl]-1,2,4-oxadiazol-3-yl}-2-fluorophenyl)oxy]propanoate] the EC50 (read-out: Assay 1 EC50) was ≤ 100 nM.
`NC(=O)Cn1ccc2c(-c3noc(-c4cn5cc(C(F)(F)F)cc(Cl)c5n4)n3)cccc21` [Example 174, 2-(4-{5-[8-chloro-6-(trifluoromethyl)imidazo[1,2-a]pyridin-2-yl]-1,2,4-oxadiazol-3-yl}-1H-indol-1-yl)acetamide] was tested, and the EC50 (read-out: Assay 1 EC50) was ≤ 100 nM.
In the case of `Oc1ccc(-c2noc(-c3cn4cc(C(F)(F)F)cc(Cl)c4n3)n2)c(Cl)c1` [Example 187, 3-chloro-4-{5-[8-chloro-6-(trifluoromethyl)imidazo[1,2-a]pyridin-2-yl]-1,2,4-oxadiazol-3-yl}phenol], the EC50 (read-out: Assay 1 EC50) is reported as ≤ 100 nM.
`Fc1cccc(Cl)c1-c1noc(-c2cn3cc(C(F)(F)F)cc(Cl)c3n2)n1` [Example 163, 8-chloro-2-[3-(2-chloro-6-fluorophenyl)-1,2,4-oxadiazol-5-yl]-6-(trifluoromethyl)imidazo[1,2-a]pyridine] showed an EC50 (read-out: Assay 1 EC50) of 100 to 500 nM.
In the case of `CC(Cc1ccc(-c2noc(-c3cn4cc(C(F)(F)F)cc(Br)c4n3)n2)c(Cl)c1)C(=O)O` (stereo not shown) [Example 189, 3-(4-{5-[8-bromo-6-(trifluoromethyl)imidazo[1,2-a]pyridin-2-yl]-1,2,4-oxadiazol-3-yl}-3-chlorophenyl)-2-methylpropanoic acid], the EC50 (read-out: Assay 1 EC50) is reported as ≤ 100 nM.
`CS(=O)(=O)Nc1ccc(-c2noc(-c3cn4cc(C#N)cc(Cl)c4n3)n2)c(Cl)c1` [Example 269, N-{3-chloro-4-[5-(8-chloro-6-cyanoimidazo[1,2-a]pyridin-2-yl)-1,2,4-oxadiazol-3-yl]phenyl}methanesulfonamide] gave an EC50 [1] of 5000 to 10000 nM.
For `CS(=O)(=O)Nc1ccc(-c2noc(-c3cn4cc(C(F)(F)F)cc(Cl)c4n3)n2)cc1F` [Example 109, N-(4-{5-[8-chloro-6-(trifluoromethyl)imidazo[1,2-a]pyridin-2-yl]-1,2,4-oxadiazol-3-yl}-2-fluorophenyl)methanesulfonamide], the EC50 (read-out: Assay 1 EC50) was 100 to 500 nM.
